# Laboratory results as given in patent US20150119363A1, “METHODS OF TREATING BACTERIAL INFECTIONS” (Rampex Pharmaceuticals, Inc., priority 2012, published 2015).
# Structures can show the parent of a compound that is named as a salt. Where two headings read alike, the source gives them in different places.
# What was measured:
# [1] = test system: Acinetobacter baumannii AB1054 (OXA-23); assay: Checkerboard assay, biapenem potentiation (MPC8); type: cell-based; conditions: concentration to reduce biapenem MIC 8-fold
# Description: (§1) The potency and spectrum of β-lactamase inhibitors was determined by assessing their antibiotic potentiation activity.
# (§2) The potentiation effect is observed by the reduction of the minimum inhibitory concentration of β-lactam antibiotics in the presence of β-lactamase inhibitors (BLIs). […] Methods for Dilution of Antimicrobial Susceptibility Tests for Bacteria That Grow Aerobically—Eighth Edition; Approved Standard. CLSI Document M07-A8, 2009). In this assay, multiple dilutions of two drugs, namely BLI and β-lactam (biapenem), are being tested, alone and in combination, at concentrations equal to, above and below their respective minimal inhibitory concentrations (MICs). BLIs are solubilized in 10% DMSO at 10 mg/mL. Stock solutions are further diluted, according to the needs of a particular assay, in Mueller Hinton Broth (MHB). Stock solution can be stored at −80° C.
# (§3) The checkerboard (CB) assay is performed in microtiter plates. Biapenem is diluted in the x axis, each column containing a single concentration of antibiotic. BLIs are diluted in the y axis, each row containing an equal concentration of BLI. The result of these manipulations is that each well of the microtiter plate contains a unique combination of concentrations of the two agents. The assay is performed in MHB with a final bacterial inoculum of 5×10^5 CFU/mL (from an early-log phase culture). Microtiter plates are incubated during 20 h at 35° C. and are read using a microtiter plate reader (Molecular Devices) at 650 nm as well as visual observation using a microtiter plate reading mirror.
# (§4) Biapenem is a carbapenem β-lactam; only selected β-lactamases confer resistance to this class of antibiotics. Among them are serine carbapemenases that belong to class A and class D. Biapenem potentiation is studied in strains expressing various carbapenemases from these classes using CB assays. […] Cyclic boronic acid derivatives were capable of reducing biapenem MICs up to 1000-fold (Table 3).
# [2] = test system: Acinetobacter baumannii AB1057 (OXA-58); assay: Checkerboard assay, biapenem potentiation (MPC8); type: cell-based; conditions: concentration to reduce biapenem MIC 8-fold
# Description: as §1, §2, §3, §4
# [3] = test system: Klebsiella pneumoniae KP1004 (KPC-2); assay: Checkerboard assay, biapenem potentiation (MPC8); type: cell-based; conditions: concentration to reduce biapenem MIC 8-fold
# Description: as §1, §2, §3, §4
# [4] = target: T1, KPC-2 (Klebsiella pneumoniae KP1004 lysate) (Klebsiella pneumoniae, UniProt Q9F663); assay: Inhibition of biapenem hydrolysis by bacterial lysate; type: biochemical
# T1 construct: Lysates were prepared from bacteria expressing various β-lactamases as a source of enzymes; endogenous in cells; host or cells: Klebsiella pneumoniae strains KP1004 and KP1008 (freeze-thaw lysate supernatants)
# Description: (§5) The activity of β-lactamase inhibitors to inhibit hydrolysis of biapenem was studied. Lysates were prepared from bacteria expressing various β-lactamases as a source of enzymes. Bacterial lysates were prepared as follows. A single colony from the fresh overnight plate was transferred to 5 mL of LB broth and grown to OD600=0.6-0.8. Next, this culture was transferred to 500 mL of LB and grown to OD600=0.7-0.9. Cells were pelleted by centrifugation at 5000 RPM (JA-14 rotor) for 15 minutes at room temperature. The pellet was resuspended in 10 mL of PBS. Five freeze-thaw cycles by putting cells at −20° C. and thawing them at the room temperature were next applied. After the last thaw step cells were spun down at 18K for 30 minutes and the supernatant was collected. This lysate was stored at −20° C.
# (§6) Next, the activity of bacterial lysates was optimized for biapenem cleavage as follows. 50 μl of buffer A (50 mM Sodium Phosphate pH=7; 0.5% glucose, 1 mM MgCl2) was added to each well of 96-well UV-transparent plate. 50 μl of lysate was titrated vertically in 96-well plate column to generate 2-fold lysate dilutions. 100 μl of buffer A was added to each well, placed in plate reader at 37° C. and incubated for 15 minutes. 50 μl of 50 μg/mL solutions of biapenem in buffer A (pre-incubated at 37° C. for 15 minutes) were added to each well. Hydrolysis of biapenem was measured at 296 nm. This experiment was used to determine the optimal lysate dilution which produced a linear curve of relative UV signal that decreased to approximately OD=0.3-0.5 over 1 hour.
# (§7) Finally, the potency of cyclic boronic acid derivative to inhibit the cleavage of biapenem cleavage by bacterial lysates was determined. 100 μl of buffer A (50 mM Sodium Phosphate pH=7; 0.5% glucose, 1 mM MgCl2) was added to each well of 96-well UV-transparent plate. 50 μl of 6× cyclic boronic acid derivative solution in buffer A was titrated vertically in 96-well plate column to generate 3-fold dilutions. 50 μl of diluted lysate in buffer A (optimal dilution is determined in experiment above) was added, and the plate was incubated in the plate reader at 37° C. for 15 minutes. 50 μl of 50 μg/mL solution of biapenem in buffer A (pre-incubated at 37° C. for 15 minutes) were next added to each well and hydrolysis of biapenem was recorded at 296 nm. EC50 of inhibition was determined by plotting the rate of biapenem cleavage vs. cyclic boronic acid derivative concentration.
# [5] = target: T2, KPC-2 (Klebsiella pneumoniae KP1008 lysate) (Klebsiella pneumoniae, UniProt Q9F663); assay: as above; type: biochemical
# T2 construct: Lysates were prepared from bacteria expressing various β-lactamases as a source of enzymes; endogenous in cells; host or cells: Klebsiella pneumoniae strains KP1004 and KP1008 (freeze-thaw lysate supernatants)
# Description: as §5, §6, §7
# [6] = target: T3, KPC-3 (Escherichia coli EC1007 lysate) (Klebsiella pneumoniae, UniProt Q9F663, H272Y); assay: as above; type: biochemical
# T3 construct: Lysates were prepared from bacteria expressing various β-lactamases as a source of enzymes; endogenous in cells; host or cells: Escherichia coli strain EC1007 (freeze-thaw lysate supernatant)
# Description: as §5, §6, §7
# [7] = target: T4, SME-2 (Serratia marcescens SM1000 lysate) (Serratia marcescens, UniProt P52682); assay: as above; type: biochemical
# T4 construct: Lysates were prepared from bacteria expressing various β-lactamases as a source of enzymes
# Description: as §5, §6, §7
# KP1004 KPC-2 = assay: Dose titration biapenem potentiation assay (MPC1); type: cell-based, Klebsiella pneumoniae
# Description: (§8) The potency and spectrum of β-lactamase inhibitors is also determined by assessing their biapenem potentiation activity in a dose titration potentiation assay using strains expressing serine carbapemenases (such as KPC). The potentiation effect is observed as the ability of BLI compounds to inhibit growth in the presence of sub-inhibitory concentration of biapenem. […] Biapenem is present in the test medium at 1 μg/mL. Compounds tested at the highest concentration of 40 μg/mL. […] Table 5 summarizes BLI potency of biapenem potentiation (MPC1). Biapenem MIC for each strain is also shown.
# KP1008 KPC-2 = assay: Dose titration biapenem potentiation assay (MPC1); type: cell-based, Klebsiella pneumoniae
# Description: as §8
# EC1007 KPC-3 = assay: Dose titration biapenem potentiation assay (MPC1); type: cell-based, Escherichia coli
# Description: as §8
# ECL1004 NMC-A = assay: Dose titration biapenem potentiation assay (MPC1); type: cell-based, Enterobacter cloacae
# Description: as §8
# [8] = test system: Enterobacter cloacae ECL1058 (KPC-3, SHV-11, TEM-1); assay: Checkerboard assay, Compound 5 with biapenem; type: cell-based; conditions: Enterobacter cloacae
# Excerpt: as §2, §3
# [9] = test system: Enterobacter cloacae ECL1059 (KPC-3, SHV-12, TEM-1); assay: Checkerboard assay, Compound 5 with biapenem; type: cell-based; conditions: Enterobacter cloacae
# Excerpt: as §2, §3
# [10] = test system: Escherichia coli EC1007 (KPC-3); assay: Checkerboard assay, Compound 5 with biapenem; type: cell-based; conditions: Escherichia coli
# Excerpt: as §2, §3
# [11] = test system: Klebsiella oxytoca KX1017 (KPC-2, OXA-2, SHV-30); assay: Checkerboard assay, Compound 5 with biapenem; type: cell-based; conditions: Klebsiella oxytoca
# Excerpt: as §2, §3
# [12] = test system: Klebsiella oxytoca KX1018 (KPC-2, SHV-40, OXY-1); assay: Checkerboard assay, Compound 5 with biapenem; type: cell-based; conditions: Klebsiella oxytoca
# Excerpt: as §2, §3
# [13] = test system: Klebsiella oxytoca KX1019 (KPC-2, OXA-2); assay: Checkerboard assay, Compound 5 with biapenem; type: cell-based; conditions: Klebsiella oxytoca
# Excerpt: as §2, §3
# [14] = test system: Klebsiella pneumoniae KP1004 (KPC-2); assay: Checkerboard assay, Compound 5 with biapenem; type: cell-based; conditions: Klebsiella pneumoniae
# Excerpt: as §2, §3
# [15] = test system: Klebsiella pneumoniae KP1008 (KPC-2); assay: Checkerboard assay, Compound 5 with biapenem; type: cell-based; conditions: Klebsiella pneumoniae
# Excerpt: as §2, §3
# [16] = test system: Klebsiella pneumoniae KP1082 (KPC-2, SHV-1); assay: Checkerboard assay, Compound 5 with biapenem; type: cell-based; conditions: Klebsiella pneumoniae
# Excerpt: as §2, §3
# [17] = test system: Klebsiella pneumoniae KP1083 (KPC-3, SHV-1, TEM-1); assay: Checkerboard assay, Compound 5 with biapenem; type: cell-based; conditions: Klebsiella pneumoniae
# Excerpt: as §2, §3
# [18] = test system: Klebsiella pneumoniae KP1084 (KPC-3, SHV-11, TEM-1); assay: Checkerboard assay, Compound 5 with biapenem; type: cell-based; conditions: Klebsiella pneumoniae
# Excerpt: as §2, §3
# [19] = test system: Klebsiella pneumoniae KP1087 (KPC-2, CTX-M-15, SHV-11, TEM-1); assay: Checkerboard assay, Compound 5 with biapenem; type: cell-based; conditions: Klebsiella pneumoniae
# Excerpt: as §2, §3
# [20] = test system: Klebsiella pneumoniae KP1088 (KPC-3, SHV-11, TEM-1); assay: Checkerboard assay, Compound 5 with biapenem; type: cell-based; conditions: Klebsiella pneumoniae
# Excerpt: as §2, §3
# [21] = test system: Escherichia coli (EC1061) NDM-1; assay: Biapenem MIC at various concentrations of Compound 5; type: cell-based; conditions: Escherichia coli
# [22] = test system: Klebsiella pneumonia (KP1004) KPC-2; assay: as above; type: cell-based; conditions: Klebsiella pneumoniae
# [23] = test system: Klebsiella pneumonia (KPM1097) NDM-1, KPC-2; assay: as above; type: cell-based; conditions: Klebsiella pneumoniae
# T3 sequence (Q9F663 25-293 H272Y): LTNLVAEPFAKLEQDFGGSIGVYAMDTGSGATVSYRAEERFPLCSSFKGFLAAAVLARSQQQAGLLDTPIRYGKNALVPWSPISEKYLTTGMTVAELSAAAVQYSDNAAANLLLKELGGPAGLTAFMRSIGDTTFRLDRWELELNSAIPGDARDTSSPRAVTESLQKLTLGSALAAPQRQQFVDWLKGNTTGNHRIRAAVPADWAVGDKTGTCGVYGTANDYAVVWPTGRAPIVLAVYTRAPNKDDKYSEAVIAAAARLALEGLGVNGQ
# T4 sequence (P52682 28-294 limits assumed): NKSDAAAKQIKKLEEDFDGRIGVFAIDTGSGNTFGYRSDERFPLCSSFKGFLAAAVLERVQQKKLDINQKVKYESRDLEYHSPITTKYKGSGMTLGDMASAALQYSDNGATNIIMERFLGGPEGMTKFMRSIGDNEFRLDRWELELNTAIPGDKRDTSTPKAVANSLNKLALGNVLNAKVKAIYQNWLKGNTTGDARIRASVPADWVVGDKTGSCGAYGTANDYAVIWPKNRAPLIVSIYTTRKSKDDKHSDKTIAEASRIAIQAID
# T1 sequence (Q9F663 25-293 limits assumed): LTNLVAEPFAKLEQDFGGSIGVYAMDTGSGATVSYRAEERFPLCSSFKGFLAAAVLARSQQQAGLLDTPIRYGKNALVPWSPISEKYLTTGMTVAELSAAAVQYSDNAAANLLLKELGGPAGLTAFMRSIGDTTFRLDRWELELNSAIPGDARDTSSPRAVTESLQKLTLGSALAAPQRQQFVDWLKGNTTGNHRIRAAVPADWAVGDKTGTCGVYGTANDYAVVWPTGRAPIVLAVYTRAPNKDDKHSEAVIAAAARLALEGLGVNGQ
# T2 sequence (Q9F663 25-293 limits assumed): as above
smiles,measurement,setting,value
"CC(=O)N[C@H]1CCC(CC(=O)O)OB1O (stereo partly drawn) [Compound 3, 2-((3R)-3-acetamido-2-hydroxy-1,2-oxaborinan-6-yl)acetic acid]",MPC8,[1],Z (Z = MPC8 of greater than 1 μg/mL.)
same,MPC8,[2],Z (Z = MPC8 of greater than 1 μg/mL.)
same,MPC8,[3],X (X = MPC8 of less than 0.16 μg/mL.)
same,IC50,[4],> 4.65 µM
same,IC50,[5],> 4.65 µM
same,IC50,"[6]; EC1007 KPC-3 lysate, read-out: IC50 (μg/mL) of inhibition of biapenem hydrolysis",0.465 to 4.65 µM
same,IC50,[7]; SM1000 SME-2 lysate; read-out: IC50 (μg/mL) of inhibition of biapenem hydrolysis,> 4.65 µM
same,BPM MPC1 KP1004 KPC-2,KP1004 KPC-2; biapenem 1 μg/mL,X (X = MPC1 of less than 1 μg/mL.)
same,BPM MPC1 KP1008 KPC-2,KP1008 KPC-2; biapenem 1 μg/mL,X (X = MPC1 of less than 1 μg/mL.)
same,BPM MPC1 EC1007 KPC-3,EC1007 KPC-3; biapenem 1 μg/mL,X (X = MPC1 of less than 1 μg/mL.)
same,BPM MPC1 ECL1004 NMC-A,ECL1004 NMC-A; biapenem 1 μg/mL,Y (Y = MPC1 of 1 μg/mL to 5 μg/mL.)
"C[C@@H](O)[C@H]1C(=O)N2C(C(=O)[O-])=C(SC3Cn4cnc[n+]4C3)[C@H](C)[C@H]12 (stereo partly drawn) [Biapenem, reference compound]",MIC,"KP1004 KPC-2; Klebsiella pneumoniae, KP1004 KPC-2",> 8 µg/mL
same,MIC,"KP1008 KPC-2; Klebsiella pneumoniae, KP1008 KPC-2",8 µg/mL
same,MIC,"EC1007 KPC-3; Escherichia coli, EC1007 KPC-3",4 µg/mL
same,MIC,"ECL1004 NMC-A; Enterobacter cloacae, ECL1004 NMC-A",8 µg/mL
same,MIC,[8],> 4 µg/mL
same,MIC,[9],0.5 to 4 µg/mL
same,MIC,[10],> 4 µg/mL
same,MIC,[11],0.5 to 4 µg/mL
same,MIC,[12],> 4 µg/mL
same,MIC,[13],> 4 µg/mL
same,MIC,[14],> 4 µg/mL
same,MIC,[15],> 4 µg/mL
same,MIC,[16],0.5 to 4 µg/mL
same,MIC,[17],> 4 µg/mL
same,MIC,[18],> 4 µg/mL
same,MIC,[19],> 4 µg/mL
same,MIC,[20],> 4 µg/mL
same,MIC,[21],0.125 µg/mL
same,MIC,[22],8 µg/mL
same,MIC,[23],16 µg/mL
"N[C@H]1CCC(CC(=O)O)OB1O (stereo partly drawn) [Compound 7, 2-((3R)-3-amino-2-hydroxy-1,2-oxaborinan-6-yl)acetic acid hydrochloride]",IC50,[6],> 5.78 µM
same,IC50,[7]; read-out: IC50 (μg/mL) of inhibition of biapenem hydrolysis; SM1000 SME-2 lysate,> 5.78 µM
